Our source for the Activity and EC50 values is ChEMBL document CHEMBL5143664, “New synthetic phenylquinazoline derivatives induce apoptosis by targeting the pro-survival members of the BCL-2 family” (Bioorg Med Chem Lett, 2022).

Active and inactive are the calls of the source. The calls are words filed in the database; no cut-off is given here.

Common to all, as to format: functional, cell-based
Test [1] relates to MCF7. Put plainly: Antiproliferative activity against human cisplatin resistant human MCF7-CR cells assessed as reduction in cell viability at 15 uM after 24 hrs by MTT assay relative to control. For orientation: Tetrazolium assays rely on reduction of a dye to a coloured formazan, in cell work by metabolically active cells.
Test [2] has as its system MCF7. Put plainly: Antiproliferative activity against human MCF7 cells assessed as reduction in cell viability at 15 uM after 24 hrs by MTT assay relative to control.
Test [3] relates to MCF7. Briefly: Antiproliferative activity against cisplatin-resistant human MCF7-CR cells assessed as reduction in cell viability after 24 hrs by MTT assay. The settings on record: MCF7, 24 h.
Test [4] concerns MCF7. Briefly: Induction of apoptosis in cisplatin-resistant human MCF7-CR cells assessed as increase in release of cytochrome C in cytosol expression at 10 to 25 uM after 16 hrs by western blot analysis. The note with it: dose 10-25 µM, DDE = dose-dependent effect. (In western blotting, separated proteins are transferred to a membrane and probed.)
Test [5] concerns MCF7. Briefly: Inhibition of colony formation in cisplatin-resistant human MCF7-CR cells at 5 to 25 uM after 7 days. The settings on record: dose 5-25 µM, time 7.0 day, DDE = dose-dependent effect.
Test [6] concerns MCF7. Briefly: Antiproliferative activity against human MCF7 cells transfected with BCLXL C5 vector assessed as reduction in cell viability after 24 hrs by MTT assay. The note with it: MCF7, 24 h.
Test [7] concerns MCF7. Briefly: Antiproliferative activity against cisplatin-resistant human MCF7-CR cells transfected with MBR C3 vector assessed as reduction in cell viability after 24 hrs by MTT assay. The settings on record: MCF7, 24 h.
In test [8] the test system is MCF7. Put plainly: Induction of apoptosis in cisplatin-resistant human MCF7-CR cells assessed as decrease in BCLXL protein expression at 5 to 25 uM after 16 hrs by western blot analysis. The settings on record: dose 5-25 µM.
Test [9] deals with MCF7. Put plainly: Induction of cell death in cisplatin-resistant human MCF7-CR cells assessed as round cell morphology at 10 uM after 24 hrs.
Test [10] has as its system MCF7. Briefly: Antiproliferative activity against human MCF7 cells assessed as reduction in cell viability after 24 hrs by MTT assay. The settings on record: MCF7, 24 h.
Test [11] concerns MCF7. Put plainly: Induction of cell death in human MCF7 cells assessed as reduction in cell volume at 10 uM after 24 hrs.
Test [12] has as its system MCF7. Put plainly: Antiproliferative activity against human MCF7 cells transfected with MBR C3 vector assessed as reduction in cell viability after 24 hrs by MTT assay. The settings on record: MCF7, 24 h.
Test [13] concerns MCF7. Put plainly: Inhibition of colony formation in human MCF7 cells at 5 to 25 uM after 7 days. The settings on record: dose 5-25 µM, time 7.0 day, DDE = dose-dependent effect.
In test [14] the test system is MCF7. Briefly: Induction of apoptosis in cisplatin-resistant human MCF7-CR cells assessed as decrease in BCL2 protein expression at 5 to 25 uM after 16 hrs by western blot analysis. The settings on record: dose 5-25 µM, DDE = dose-dependent effect.
In test [15] the test system is MCF7. Put plainly: Synergistic antiproliferative activity against cisplatin-resistant human MCF7-CR cells assessed as reduction in cell viability in presence of cisplatin after 24 hrs by MTT assay. The note with it: MCF7, 24 h.
Test [16] has as its system MCF7. Put plainly: Synergistic antiproliferative activity against cisplatin-resistant human MCF7-CR cells assessed as reduction in cell viability in presence of ABT737 after 24 hrs by MTT assay. The settings on record: MCF7, 24 h.
Test [17] relates to MCF7. Put plainly: Antiproliferative activity against cisplatin-resistant human MCF7-CR cells transfected with empty vector assessed as reduction in cell viability after 24 hrs by MTT assay. The note with it: MCF7, 24 h.
Test [18] deals with MCF7. Put plainly: Antiproliferative activity against human MCF7 cells cultured as 3D-spheroids assessed as reduction in cell viability at 5 to 25 uM after 24 hrs by alamar blue assay. The note with it: dose 5-25 µM, DDE = dose-dependent effect. In general terms: Resazurin is reduced to fluorescent resorufin, in cell work by metabolically active cells.
For test [19], the system named is MCF7. Briefly: Antiproliferative activity against cisplatin-resistant human MCF7-CR cells cultured as 3D-spheroids assessed as reduction in cell viability at 5 to 25 uM after 24 hrs by alamar blue assay. The settings on record: dose 5-25 µM, DDE = dose-dependent effect.
In test [20] the test system is MCF7. Put plainly: Synergistic antiproliferative activity against cisplatin-resistant human MCF7-CR cells assessed as reduction in cell viability in presence of taxol after 24 hrs by MTT assay. The note with it: MCF7, 24 h.
Test [21] relates to MCF7. Briefly: Antiproliferative activity against cisplatin-resistant human MCF7-CR cells transfected with MBR C2 vector assessed as reduction in cell viability after 24 hrs by MTT assay. The note with it: MCF7, 24 h.
For test [22], the system named is MCF7. Briefly: Induction of cell death in human MCF7 cells assessed as round cell morphology at 10 uM after 24 hrs.
For test [23], the system named is MCF7. Put plainly: Induction of cell death in cisplatin-resistant human MCF7-CR cells assessed as reduction in cell volume at 10 uM after 24 hrs.
For test [24], the system named is MCF7. Put plainly: Antiproliferative activity against human MCF7 cells transfected with empty vector assessed as reduction in cell viability after 24 hrs by MTT assay. The settings on record: MCF7, 24 h.

As a reminder, the EC50 is the concentration needed to bring the measured effect to its halfway point.

For `COc1ccc(-c2nc(-c3ccccc3)c3cc(Cl)ccc3n2)c(F)c1`, the outcome in the test on MCF7 [1] and in the test with MCF7 [2] was Active.
As for `CC(=O)O[C@H]1C(=O)[C@@]2(C)[C@H]([C@H](OC(=O)c3ccccc3)[C@]3(O)C[C@H](OC(=O)[C@H](O)[C@@H](NC(=O)c4ccccc4)c4ccccc4)C(C)=C1C3(C)C)[C@]1(OC(C)=O)CO[C@@H]1C[C@@H]2O` [PACLITAXEL], in the test with MCF7 [3], the EC50 is 44.7 µM.
Take `CCOc1cc(-c2nc(-c3ccccc3)c3cc(Cl)ccc3n2)ccc1OC`: the outcome in the test on MCF7 [1] and in the test with MCF7 [2] was Active.
As to `Cc1ccc(-c2nc(-c3ccccc3)c3cc(Cl)ccc3n2)cc1`, the outcome in the test on MCF7 [1] and in the test on MCF7 [2] was Active.
On to `CCCCOc1ccc(-c2nc(-c3ccccc3)c3cc(Cl)ccc3n2)cc1`, for which the result in the test with MCF7 [1] and with MCF7 [2] was Active.
With `Oc1cccc(-c2nc(-c3ccccc3)c3cc(Cl)ccc3n2)c1O`, the outcome in the test with MCF7 [1] and in the test on MCF7 [2] was Active.
On to `CCOc1ccc(-c2nc(-c3ccccc3)c3cc(Cl)ccc3n2)cc1`, for which the outcome with MCF7 [1] and in the test with MCF7 [2] was Active.
For `CC(C)(C)c1ccc(-c2nc(-c3ccccc3)c3cc(Cl)ccc3n2)cc1`, the result in the test on MCF7 [1] and in the test with MCF7 [2] was Active.
Regarding `FC(F)(F)c1ccc(-c2nc(-c3ccccc3)c3cc(Cl)ccc3n2)cc1`, the outcome with MCF7 [1] and with MCF7 [2] was Active.
`Fc1cc(-c2nc(-c3ccccc3)c3cc(Cl)ccc3n2)ccc1Br`: the Activity result in the test on MCF7 [4], with MCF7 [5], in the test on MCF7 [13], in the test on MCF7 [14], in the test with MCF7 [18] and in the test on MCF7 [19] was “Dde” throughout. Further, the EC50 with MCF7 [6] is 6.87 µM; with MCF7 [7], 5.19 µM; in the test with MCF7 [10] it was 5.02 µM; in the test on MCF7 [12] it was 2.96 µM; in the test with MCF7 [15], 4.89 µM; with MCF7 [16], 0.29 µM. For the same compound, the EC50 in the test on MCF7 [17] was determined as 22.4 µM; with MCF7 [20] it was 1.23 µM; in the test on MCF7 [21] it was 5.04 µM; in the test with MCF7 [3], 5.44 µM; in the test on MCF7 [24], 8.62 µM. Also, the result with MCF7 [8], in the test on MCF7 [1], with MCF7 [9], in the test on MCF7 [11], in the test with MCF7 [2] and in the test with MCF7 [22] was Active. The result in the test on MCF7 [23] was Active.
On to `Oc1ccccc1-c1nc(-c2ccccc2)c2cc(Cl)ccc2n1`, for which the Activity result with MCF7 [4], with MCF7 [5], in the test on MCF7 [13], in the test with MCF7 [14], in the test with MCF7 [18] and in the test with MCF7 [19] was “Dde” throughout. Also, the EC50 in the test with MCF7 [6] stood at 10.2 µM; in the test on MCF7 [7], 6.31 µM; in the test with MCF7 [10], 6.3 µM; in the test with MCF7 [12], 3.03 µM; in the test on MCF7 [15] it was 9.12 µM; with MCF7 [16], 0.53 µM. In addition, the EC50 in the test on MCF7 [17] was 29.4 µM; in the test on MCF7 [20] it was 3.55 µM; in the test on MCF7 [21], 5.73 µM; in the test with MCF7 [3] it was 21.4 µM; in the test with MCF7 [24] it was 14.2 µM. In addition, the result in the test with MCF7 [8], with MCF7 [1], in the test with MCF7 [9], with MCF7 [11], with MCF7 [2] and with MCF7 [22] was Active. Further, the result in the test with MCF7 [23] was Active.
Consider `CN(C)CC[C@H](CSc1ccccc1)Nc1ccc(S(=O)(=O)NC(=O)c2ccc(N3CCN(Cc4ccccc4-c4ccc(Cl)cc4)CC3)cc2)cc1[N+](=O)[O-]` [ABT 737], for which the EC50 in the test with MCF7 [3] is 4.39 µM.
